Source: ChEMBL document CHEMBL5380795, “Design, Synthesis, and Bioactivity Investigation of Cyclic Lipopeptide Antibiotics Containing Eight to Nine Amino Acids” (J Med Chem, 2023)
≈ marks a conversion by molar mass, not a printed value. Bridge positions count the residues as written; N and C are the ends. Square brackets hold non-standard residues; d marks the D form. Peptide text beside a SMILES is read from it. * marks the point of attachment. Decanoyl(3R-OH) = CCCCCCC[C@@H](O)CC(=O)*; X1 = CC[C@H](C)CCCCC(=O)*; dDab = NCC[C@@H](N)C(=O)O; Dab = NCC[C@H](N)C(=O)O

Experiments:
Pseudomonas aeruginosa [1] = test: Antibacterial activity against Pseudomonas aeruginosa ATCC 27853 assessed as inhibition of bacterial growth incubated for 18 to 24 hrs by broth microdilution method; format: functional; conditions: time 18-24 hrs
Escherichia coli [2] = test: Antibacterial activity against Escherichia coli NCTC 13353 assessed as inhibition of bacterial growth incubated for 18 to 24 hrs by broth microdilution method; format: functional; conditions: time 18-24 hrs
Staphylococcus aureus [3] = test: Antibacterial activity against methicillin resistant Staphylococcus aureus ATCC 33591 assessed as inhibition of bacterial growth incubated for 18 to 24 hrs by broth microdilution method; format: functional; conditions: time 18-24 hrs
Pseudomonas aeruginosa [4] = test: Antibacterial activity against carbapenem resistant Pseudomonas aeruginosa clinical isolate 19-3 assessed as inhibition of bacterial growth incubated for 18 to 24 hrs by broth microdilution method; format: functional; conditions: time 18-24 hrs
Klebsiella pneumoniae [5] = test: Antibacterial activity against KPC producing Klebsiella pneumoniae ATCC BAA-1705 assessed as inhibition of bacterial growth incubated for 18 to 24 hrs by broth microdilution method; format: functional; conditions: time 18-24 hrs
Escherichia coli [6] = test: Antibacterial activity against Escherichia coli clinical isolate 19-2 assessed as inhibition of bacterial growth incubated for 18 to 24 hrs by broth microdilution method; format: functional; conditions: time 18-24 hrs
Klebsiella pneumoniae [7] = test: Antibacterial activity against carbapenem resistant Klebsiella pneumoniae clinical isolate 19-17 assessed as inhibition of bacterial growth incubated for 18 to 24 hrs by broth microdilution method; format: functional; conditions: time 18-24 hrs
Acinetobacter baumannii [8] = test: Antibacterial activity against carbapenem resistant Acinetobacter baumannii clinical isolate 19-8 assessed as inhibition of bacterial growth incubated for 18 to 24 hrs by broth microdilution method; format: functional; conditions: time 18-24 hrs
Staphylococcus aureus [9] = test: Antibacterial activity against Staphylococcus aureus ATCC 29213 assessed as inhibition of bacterial growth incubated for 18 to 24 hrs by broth microdilution method; format: functional; conditions: time 18-24 hrs
Escherichia coli [10] = test: Antibacterial activity against Escherichia coli ATCC BAA-2523 assessed as inhibition of bacterial growth incubated for 18 to 24 hrs by broth microdilution method; format: functional; conditions: time 18-24 hrs
Escherichia coli [11] = test: Antibacterial activity against KPC producing Escherichia coli ATCC BAA-2340 assessed as inhibition of bacterial growth incubated for 18 to 24 hrs by broth microdilution method; format: functional; conditions: time 18-24 hrs
[12] = test system: Staphylococcus epidermidis; test: Antibacterial activity against methicillin resistant Staphylococcus epidermidis clinical isolate 19-5 assessed as inhibition of bacterial growth incubated for 18 to 24 hrs by broth microdilution method; format: functional; conditions: time 18-24 hrs
Pseudomonas aeruginosa [13] = test: Antibacterial activity against carbapenem resistant Pseudomonas aeruginosa clinical isolate 17-1 assessed as inhibition of bacterial growth incubated for 18 to 24 hrs by broth microdilution method; format: functional; conditions: time 18-24 hrs
Acinetobacter baumannii [14] = test: Antibacterial activity against oxacillinase-27 producing Acinetobacter baumannii NCTC 13304 assessed as inhibition of bacterial growth incubated for 18 to 24 hrs by broth microdilution method; format: functional; conditions: time 18-24 hrs
[15] = Cytotoxicity against human HK-2 cells assessed as inhibition of cell growth incubated for 72 hrs by CCK-8 assay; format: toxicity, cell-based
[16] = Selectivity index, ratio of IC50 for cytotoxicity against human HK-2 cells to MIC for antibacterial activity against Escherichia coli ATCC BAA-2523; format: toxicity, cell-based
[17] = test system: Staphylococcus epidermidis; test: Antibacterial activity against methicillin resistant Staphylococcus epidermidis clinical isolate 19-6 assessed as inhibition of bacterial growth incubated for 18 to 24 hrs by broth microdilution method; format: functional; conditions: time 18-24 hrs
Klebsiella pneumoniae [18] = test: Antibacterial activity against carbapenem resistant Klebsiella pneumoniae clinical isolate 19-15 assessed as inhibition of bacterial growth incubated for 18 to 24 hrs by broth microdilution method; format: functional; conditions: time 18-24 hrs
Pseudomonas aeruginosa [19] = test: Antibacterial activity against Pseudomonas aeruginosa clinical isolate 19-1 assessed as inhibition of bacterial growth incubated for 18 to 24 hrs by broth microdilution method; format: functional; conditions: time 18-24 hrs
Escherichia coli [20] = test: Antibacterial activity against Escherichia coli; format: functional
Acinetobacter baumannii [21] = test: Antibacterial activity against Acinetobacter baumannii; format: functional
Klebsiella pneumoniae [22] = test: Antibacterial activity against Klebsiella pneumoniae; format: functional
Pseudomonas aeruginosa [23] = test: Antibacterial activity against Pseudomonas aeruginosa; format: functional

Question: Which results are given for `CC(C)C[C@@H]1NC(=O)[C@@H](CC(C)C)NC(=O)[C@H](CCN)NC(=O)[C@@H](NC(=O)[C@@H](CCN)NC(=O)CCCCCc2ccccc2)CCNC(=O)[C@H]([C@@H](C)O)NC(=O)[C@H](CCN)NC(=O)[C@H](CCN)NC1=O`?
Answer: MIC (Pseudomonas aeruginosa [1]): 1 µg/mL (≈ 0.998 µM); MIC (Escherichia coli [2]): 32 µg/mL (≈ 31.9 µM); MIC (Staphylococcus aureus [3]): > 64 µg/mL; MIC (Pseudomonas aeruginosa [4]): 4 µg/mL (≈ 3.99 µM); MIC (Klebsiella pneumoniae [5]): 8 µg/mL (≈ 7.98 µM); MIC (Escherichia coli [6]): 16 µg/mL (≈ 16 µM); MIC (Klebsiella pneumoniae [7]): > 64 µg/mL; MIC (Acinetobacter baumannii [8]): > 64 µg/mL; MIC (Staphylococcus aureus [9]): > 64 µg/mL; MIC (Escherichia coli [10]): 16 µg/mL (≈ 16 µM); MIC (Escherichia coli [11]): 8 µg/mL (≈ 7.98 µM); MIC [12]: 8 µg/mL (≈ 7.98 µM); MIC (Pseudomonas aeruginosa [13]): 4 µg/mL (≈ 3.99 µM); MIC (Acinetobacter baumannii [14]): > 64 µg/mL; IC50 at 72 h [15]: 309 µg/mL (≈ 309 µM); selectivity ratio [16]: 19.3; MIC [17]: 64 µg/mL (≈ 63.9 µM); MIC (Klebsiella pneumoniae [18]): > 64 µg/mL; MIC (Pseudomonas aeruginosa [19]): 2 µg/mL (≈ 2 µM)

Question: Which MIC (Pseudomonas aeruginosa [1]) does the source give for `CCCCCCC[C@@H](O)CC(=O)N[C@H](CCN)C(=O)N[C@H]1CCNC(=O)[C@H]([C@@H](C)O)NC(=O)[C@H](CCN)NC(=O)[C@H](CCN)NC(=O)[C@H]([C@@H](C)O)NC(=O)[C@@H](CC(C)C)NC(=O)[C@H](CCN)NC1=O` here?
Answer: 0.25 µg/mL (≈ 0.253 µM)

Question: What about the MIC (Escherichia coli [2]) of the same molecule?
Answer: 16 µg/mL (≈ 16.2 µM)

Question: And the MIC (Staphylococcus aureus [3])?
Answer: > 64 µg/mL

Question: What about the MIC (Pseudomonas aeruginosa [4]) of the same molecule?
Answer: 0.5 µg/mL (≈ 0.507 µM)

Question: And the MIC (Klebsiella pneumoniae [5])?
Answer: 4 µg/mL (≈ 4.06 µM)

Question: And the MIC (Escherichia coli [6])?
Answer: 16 µg/mL (≈ 16.2 µM)

Question: And the MIC (Klebsiella pneumoniae [7])?
Answer: 64 µg/mL (≈ 64.9 µM)

Question: What about the MIC (Acinetobacter baumannii [8]) of the same molecule?
Answer: > 64 µg/mL

Question: And the MIC (Staphylococcus aureus [9])?
Answer: > 64 µg/mL

Question: What about the MIC (Escherichia coli [10]) of the same molecule?
Answer: 2 µg/mL (≈ 2.03 µM)

Question: And the MIC (Escherichia coli [11])?
Answer: 4 µg/mL (≈ 4.06 µM)

Question: And the MIC [12]?
Answer: > 64 µg/mL

Question: What about the MIC (Pseudomonas aeruginosa [13]) of the same molecule?
Answer: 0.5 µg/mL (≈ 0.507 µM)

Question: And the MIC (Acinetobacter baumannii [14])?
Answer: > 64 µg/mL

Question: What about the IC50 at 72 h [15] of the same molecule?
Answer: 411 µg/mL (≈ 417 µM)

Question: And the selectivity ratio [16]?
Answer: 205

Question: And the MIC [17]?
Answer: > 64 µg/mL

Question: What about the MIC (Klebsiella pneumoniae [18]) of the same molecule?
Answer: 16 µg/mL (≈ 16.2 µM)

Question: And the MIC (Pseudomonas aeruginosa [19])?
Answer: 0.5 µg/mL (≈ 0.507 µM)

Question: For `CCCCCCC[C@@H](O)CC(=O)N[C@@H](CCN)C(=O)N[C@H](CCN)C(=O)N[C@H]1CCNC(=O)[C@H](CC(C)C)NC(=O)[C@H](CCN)NC(=O)[C@H](CCN)NC(=O)[C@H](Cc2ccccc2)NC(=O)[C@@H](CC(C)C)NC(=O)[C@H](CCN)NC1=O`, which MIC (Pseudomonas aeruginosa [1]) is on record?
Answer: 2 µg/mL (≈ 1.75 µM)

Question: And the MIC (Escherichia coli [2])?
Answer: 32 µg/mL (≈ 28 µM)

Question: What about the MIC (Staphylococcus aureus [3]) of the same molecule?
Answer: 16 µg/mL (≈ 14 µM)

Question: What about the MIC (Pseudomonas aeruginosa [4]) of the same molecule?
Answer: 4 µg/mL (≈ 3.5 µM)

Question: What about the MIC (Klebsiella pneumoniae [5]) of the same molecule?
Answer: 32 µg/mL (≈ 28 µM)

Question: What about the MIC (Escherichia coli [6]) of the same molecule?
Answer: 16 µg/mL (≈ 14 µM)

Question: And the MIC (Klebsiella pneumoniae [7])?
Answer: 64 µg/mL (≈ 55.9 µM)

Question: And the MIC (Acinetobacter baumannii [8])?
Answer: 16 µg/mL (≈ 14 µM)

Question: What about the MIC (Staphylococcus aureus [9]) of the same molecule?
Answer: 8 µg/mL (≈ 6.99 µM)

Question: And the MIC (Escherichia coli [10])?
Answer: 8 µg/mL (≈ 6.99 µM)

Question: And the MIC (Escherichia coli [11])?
Answer: 16 µg/mL (≈ 14 µM)

Question: What about the MIC [12] of the same molecule?
Answer: 1 µg/mL (≈ 0.874 µM)

Question: What about the MIC (Pseudomonas aeruginosa [13]) of the same molecule?
Answer: 2 µg/mL (≈ 1.75 µM)

Question: What about the MIC (Acinetobacter baumannii [14]) of the same molecule?
Answer: 16 µg/mL (≈ 14 µM)

Question: And the IC50 at 72 h [15]?
Answer: 18.5 µg/mL (≈ 16.2 µM)

Question: And the selectivity ratio [16]?
Answer: 2.3

Question: And the MIC [17]?
Answer: 4 µg/mL (≈ 3.5 µM)

Question: And the MIC (Klebsiella pneumoniae [18])?
Answer: 32 µg/mL (≈ 28 µM)

Question: What about the MIC (Pseudomonas aeruginosa [19]) of the same molecule?
Answer: 2 µg/mL (≈ 1.75 µM)

Question: For `CCCCCCC[C@@H](O)CC(=O)N[C@H](CCN)C(=O)N[C@H]1CCNC(=O)[C@H]([C@@H](C)O)NC(=O)[C@H](CCN)NC(=O)[C@H](CCN)NC(=O)[C@H](CC(C)C)NC(=O)[C@@H](Cc2ccccc2)NC(=O)[C@H](CCN)NC1=O` ({Decanoyl(3R-OH)}-[dDab][Dab][Dab][dF]L[Dab][Dab]T; lactam 2-C), which MIC (Pseudomonas aeruginosa [1]) is on record?
Answer: 0.5 µg/mL (≈ 0.484 µM)

Question: And the MIC (Escherichia coli [2])?
Answer: 4 µg/mL (≈ 3.87 µM)

Question: And the MIC (Staphylococcus aureus [3])?
Answer: > 64 µg/mL

Question: And the MIC (Pseudomonas aeruginosa [4])?
Answer: 1 µg/mL (≈ 0.969 µM)

Question: What about the MIC (Klebsiella pneumoniae [5]) of the same molecule?
Answer: 0.5 µg/mL (≈ 0.484 µM)

Question: What about the MIC (Escherichia coli [6]) of the same molecule?
Answer: 2 µg/mL (≈ 1.94 µM)

Question: And the MIC (Klebsiella pneumoniae [7])?
Answer: 4 µg/mL (≈ 3.87 µM)

Question: And the MIC (Acinetobacter baumannii [8])?
Answer: 32 µg/mL (≈ 31 µM)

Question: What about the MIC (Staphylococcus aureus [9]) of the same molecule?
Answer: > 64 µg/mL

Question: And the MIC (Escherichia coli [10])?
Answer: 1 µg/mL (≈ 0.969 µM)

Question: And the MIC (Escherichia coli [11])?
Answer: 1 µg/mL (≈ 0.969 µM)

Question: What about the MIC [12] of the same molecule?
Answer: 8 µg/mL (≈ 7.75 µM)

Question: What about the MIC (Pseudomonas aeruginosa [13]) of the same molecule?
Answer: 0.5 µg/mL (≈ 0.484 µM)

Question: What about the MIC (Acinetobacter baumannii [14]) of the same molecule?
Answer: 32 µg/mL (≈ 31 µM)

Question: What about the IC50 at 72 h [15] of the same molecule?
Answer: 125 µg/mL (≈ 121 µM)

Question: What about the selectivity ratio [16] of the same molecule?
Answer: 125

Question: And the MIC [17]?
Answer: 32 µg/mL (≈ 31 µM)

Question: What about the MIC (Klebsiella pneumoniae [18]) of the same molecule?
Answer: 2 µg/mL (≈ 1.94 µM)

Question: What about the MIC (Pseudomonas aeruginosa [19]) of the same molecule?
Answer: 0.5 µg/mL (≈ 0.484 µM)

Question: For `CC[C@H](C)CCCCC(=O)N[C@@H](CCN)C(=O)N[C@H](C(=O)N[C@@H](CCN)C(=O)N[C@H]1CCNC(=O)[C@H]([C@@H](C)O)NC(=O)[C@H](CCN)NC(=O)[C@H](CCN)NC(=O)[C@H](CC(C)C)NC(=O)[C@@H](CC(C)C)NC(=O)[C@H](CCN)NC1=O)[C@@H](C)O` (X1-[Dab]T[Dab][Dab][Dab][dL]L[Dab][Dab]T; lactam 4-C), which MIC (Escherichia coli [20]) is on record?
Answer: 0.05 µg/mL (≈ 0.0428 µM)

Question: What about the MIC (Acinetobacter baumannii [21]) of the same molecule?
Answer: 1 µg/mL (≈ 0.855 µM)

Question: And the MIC (Klebsiella pneumoniae [22])?
Answer: 1 µg/mL (≈ 0.855 µM)

Question: What about the MIC (Pseudomonas aeruginosa [23]) of the same molecule?
Answer: 0.2 µg/mL (≈ 0.171 µM)
